From US6576627B1, “Phosphonic acid derivatives having carboxypeptidase b inhibitory activity” (Meiji Seika Kaisha Ltd., priority 1999, dated 2003) come the findings set out here.

SMILES strings stand for the structures.

One data set has as its target T1, carboxypeptidase B (Homo sapiens, UniProt Q96IY4).
T1 construct: from tissue; host or cells: human plasma (citrated)
T1 sequence (Q96IY4 115-423): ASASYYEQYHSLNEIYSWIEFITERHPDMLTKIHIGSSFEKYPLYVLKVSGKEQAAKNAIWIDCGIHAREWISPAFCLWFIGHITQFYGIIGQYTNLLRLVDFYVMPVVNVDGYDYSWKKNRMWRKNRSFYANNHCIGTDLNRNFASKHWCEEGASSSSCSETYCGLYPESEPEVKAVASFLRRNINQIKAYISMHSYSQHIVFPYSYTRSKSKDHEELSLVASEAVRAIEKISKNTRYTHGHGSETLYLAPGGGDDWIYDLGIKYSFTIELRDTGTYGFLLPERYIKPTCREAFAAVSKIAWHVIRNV
The data set is described as follows: Inhibitory activity against carboxypeptidase B (activated pro-CPB partially purified from human plasma, Hip-Arg substrate). As to conditions: tested substance 500 nM, 25° C. for 60 minutes, absorbance at 405 nm; for inhibition at 0.5 µM: read-out: Carboxypeptidase B inhibitory rates by tested substance at 500 nM. The format is biochemical. The method, then: Inhibitory activity of the compounds of the present invention against carboxypeptidase B was measured as follows according to the method described in Thromb. Haemost. 371(1998).
(a) Partial Purification of Carboxypeptidase B Precursor (pro-CPB) from Human Plasma
Human plasma collected over citric acid was added with 80 mM barium chloride and treated at 4° C. for 30 minutes. The supernatant obtained by centrifugation at 10,000 rpm for 20 minutes was dialyzed against 20 mM HEPES buffer containing 0.15 M sodium chloride (pH 7.4). Furthermore, protein in the fractions obtained with 30% to 80% ammonium sulfate were partially purified by chromatography using a Q-Sepharose column (elution with 50 mM tris-HCl buffer (pH 7.4) gradually containing sodium chloride to 0.5 M).
(b) Activation of pro-CPB
pro-CPB (20 μl) was added with 20 μl of a thrombomodulin solution (Thrombomodulin derived from rabbit lung, American Diagnostia Inc., Product No. #237, dissolved at concentration of 300 ng/ml in buffer A as 50 mM tris-HCl buffer (pH 7.4) supplemented with 0.1% Lubrol, 0.1% BSA and 0.15 M sodium chloride), and treated at 25° C. for 3 minutes. Then, the mixture was added with 20 μl of thrombin (Thrombin derived from human plasma, Sigma, Product No. T8885, dissolved at concentration of 3 u/ml in buffer B as 50 mM Tris-HCl buffer (pH 7.4) supplemented with 0.1% BSA, 0.15 M NaCl and 10 mM calcium chloride) and further treated at 25° C. for 30 minutes for activation(*1).
(c) Measurement of CPB Inhibitory Activity
By using a microplate, 4 μl of the sample was added with a mixed solution of 41 μl of buffer C (0.1 M tris-HCl buffer (pH 7.6)) and 25 μl of a substrate solution (Hip-Arg, Sigma, H2508, dissolved in buffer C at concentration of 4 mM.), and further added with 10 μl of the activated CPB solution (*1), and then the mixture was well mixed and allowed to react at 25° C. for 60 minutes. Then, 100 μl of 0.2 M PIPES buffer (pH 7.5) containing 12.5% Tween was added to the mixture to stop the reaction. After 5 minutes, the mixture was added with 100 μl of a coloring solution (2-methoxyethanol containing 1% cyanuryl chloride) and allowed to stand at room temperature for 15 minutes, and then absorbance was measured at 405 nm by using a microplate reader (Bio Rad Model 3550).
Inhibitory activity against carboxypeptidase B was calculated by using the following equation as an inhibitory rate, wherein A represents absorbance in the absence of a tested substance; B represents absorbance in the presence of a tested substance (500 nM); A′ and B′ represent the aforementioned absorbances obtained by using non-activated enzyme without and with the tested substance, respectively.
Inhibitory rate (%)=[1−{(B-B′)/(A-A′)}]×100
The results of the carboxypeptidase B inhibitory rates are shown in Table 1, which were calculated by using the above equation and the results of the measurements in the above experiments for the compounds of the present invention.

For a further data set, the system named is ICR male mice. The data set can be described thus: Toxicity test by single administration. The conditions noted are these: single intravenous administration in saline, dose of 1 g/kg, ICR male mice of 5 weeks old. The format is in vivo. As to the method: Toxicity Test Example by Single Administration
The compound of Example 19 of the present invention was dissolved in saline intravenously administered to 6 individuals of ICR male mice of 5 weeks old.

For `CC(C)C(NC(=O)CCc1ccccc1)P(=O)(O)OC(CCCCN)C(=O)O` [Example 2, (S)-6-Amino-2-((2-methyl-1-(3-phenylpropanoylamino)propyl)(hydroxyphosphinoyl)oxy)hexanoic acid], the “Carboxypeptidase B inhibitory rates by tested substance at 500 nM” value on carboxypeptidase B is given as more than 90%.

On to `NCCCC[C@H](OP(=O)(O)C1(NC(=O)CCc2ccccc2)CCCCC1)C(=O)O` [Example 14, (S)-6-Amino-2-((1-(3-phenylpropanoylamino)cyclohexyl)(hydroxyphosphinoyl)oxy)hexanoic acid], for which the inhibition at 0.5 µM on carboxypeptidase B is more than 90%.

For `NCCCCC(OP(=O)(O)C(CO)NC(=O)CCc1ccccc1)C(=O)O` [Example 37, (S)-6-Amino-2-((2-hydroxy-1-(3-phenylpropanoylamino)ethyl)(hydroxyphosphinoyl)oxy)hexanoic acid], the inhibition at 0.5 µM at carboxypeptidase B was determined as 70%.

For `CC(C)CC(NC(=O)CCc1ccccc1)P(=O)(O)OC(CCCCN)C(=O)O` [Example 12, (S)-6-Amino-2-((3-methyl-1-(3-phenylpropanoylamino)butyl)(hydroxyphosphinoyl)oxy)hexanoic acid], the inhibition at 0.5 µM at carboxypeptidase B was more than 90%.

Consider `CCCC(NC(=O)CCc1ccccc1)P(=O)(O)OC(CCCCN)C(=O)O` [Example 8, (S)-6-Amino-2-((1-(3-phenylpropanoylamino)butyl)(hydroxyphosphinoyl)oxy)hexanoic acid], for which the inhibition at 0.5 µM at carboxypeptidase B was more than 90%.

On to `CC1CCC(C(NC(=O)CCc2ccccc2)P(=O)(O)OC(CCCCN)C(=O)O)CC1` [Example 41, (S)-6-Amino-2-((1-(4-methylcyclohexyl)-1-(3-phenylpropanoylamino)methyl)(hydroxyphosphinoyl)oxy)hexanoic acid], for which the inhibition at 0.5 µM on carboxypeptidase B was more than 90%.

Take `CC(NC(=O)CCc1ccccc1)P(=O)(O)OC(CCCCN)C(=O)O` [Example 4, (S)-6-Amino-2-((1-(3-phenylpropanoylamino)ethyl)(hydroxyphosphinoyl)oxy)hexanoic acid]: the inhibition at 0.5 µM on carboxypeptidase B was more than 90%.

With `NCCCC[C@H](OP(=O)(O)CNC(=O)CCc1ccccc1)C(=O)O` [Example 5, (S)-6-Amino-2-(((3-phenylpropanoylamino)methyl)(hydroxyphosphinoyl)oxy)hexanoic acid], the inhibition at 0.5 µM on carboxypeptidase B turned out to be 30%.

In the case of `NCCCCC(OP(=O)(O)C(NC(=O)CCc1ccccc1)C1CCCCC1)C(=O)O` [Example 9, (S)-6-Amino-2-((1-cyclohexyl-1-(3-phenylpropanoylamino)methyl)(hydroxyphosphinoyl)oxy)hexanoic acid], the inhibition at 0.5 µM at carboxypeptidase B is more than 90%.

For `NCCCCC(OP(=O)(O)C(NC(=O)CCc1ccccc1)c1ccccc1)C(=O)O` [Example 34, (S)-6-Amino-2-((1-phenyl-1-(3-phenylpropanoylamino)methyl)(hydroxyphosphinoyl)oxy)hexanoic acid], the inhibition at 0.5 µM on carboxypeptidase B came to 40%.

Consider `NCCCCC(OP(=O)(O)C(NC(=O)CCc1ccccc1)C1CCOCC1)C(=O)O` [Example 35, (S)-6-Amino-2-((1-(3-phenylpropanoylamino)-1-(tetrahydropyran-4-yl)methyl)(hydroxyphosphinoyl)oxy)bexanoic acid], for which the inhibition at 0.5 µM on carboxypeptidase B is more than 90%.

Take `CCC(NC(=O)CCc1ccccc1)P(=O)(O)OC(CCCCN)C(=O)O` [Example 16, (S)-6-Amino-2-((1-(3-phenylpropanoylamino)propyl)(hydroxyphosphinoyl)oxy)hexanoic acid]: the inhibition at 0.5 µM on carboxypeptidase B was more than 90%.

For `C[C@H](NC(=O)OCc1ccccc1)P(=O)(O)O[C@@H](CCCCN)C(=O)O` [Example 1, (S)-6-Amino-2-(((R)-1-(benzyloxycarbonylamino)ethyl)(hydroxyphosphinoyl)oxy)hexanoic acid], the inhibition at 0.5 µM at carboxypeptidase B was determined as 30%.

Turning to `CC(C)C(NC(=O)CCCc1ccccc1)P(=O)(O)OC(CCCCN)C(=O)O` [Example 24, (S)-6-Amino-2-(2-methyl-1-(4-phenylbutanoylamino)propyl(hydroxyphosphinoyl)oxy)hexanoic acid], the inhibition at 0.5 µM at carboxypeptidase B was more than 90%.

Turning to `CCC(CC)C(NC(=O)CCc1ccccc1)P(=O)(O)OC(CCCCN)C(=O)O` [Example 3, (S)-6-Amino-2-((2-ethyl-1-(3-phenylpropanoylamino)butyl)(hydroxyphosphinoyl)oxy)hexanoic acid], the inhibition at 0.5 µM on carboxypeptidase B was more than 90%.

Regarding `NCCCCC(OP(=O)(O)C(NC(=O)CCc1ccccc1)C1CCNCC1)C(=O)O` [Example 39, (S)-6-Amino-2-((1-(piperidin-4-yl)-1-(3-phenylpropanoylamino)methyl)(hydroxyphosphinoyl)oxy)hexanoic acid], the inhibition at 0.5 µM on carboxypeptidase B is more than 90%.

Take `CC(C)(C)CC(NC(=O)CCc1ccccc1)P(=O)(O)OC(CCCCN)C(=O)O` [Example 23, (S)-6-Amino-2-((3,3-dimethyl-1-(3-phenylpropanoylamino)butyl)(hydroxyphosphinoyl)oxy)hexanoic acid]: the inhibition at 0.5 µM on carboxypeptidase B turned out to be 50%.

Take `NCCCCC(OP(=O)(O)C(CCC(F)(F)F)NC(=O)CCc1ccccc1)C(=O)O` [Example 25, (S)-6-Amino-2-((4,4,4-trifluoro-1-(3-phenylpropanoylamino)butyl)(hydroxyphosphinoyl)oxy)hexanoic acid]: the inhibition at 0.5 µM at carboxypeptidase B came out at 80%.

Regarding `CC(C)C(NC(=O)CCc1ccccc1)P(=O)(O)OC(CCCCN)C(=O)O` [Example 19, (S)-6-Amino-2-((2-methyl-(1R)-(3-phenylpropanoylamino)propyl)(hydroxyphosphinoyl)oxy)hexanoic acid], the “death of the mice or severe toxicity” value in the data set with ICR male mice is “no death of the mice or severe toxicity was observed”. In addition, the inhibition at 0.5 µM at carboxypeptidase B was more than 90%.

For `NCCCC[C@H](OP(=O)(O)C(NC(=O)CCc1ccccc1)C1CCC1)C(=O)O` (stereo partly drawn) [Example 10, (S)-6-Amino-2-((1-cyclobutyl-1-(3-phenylpropanoylamino)methyl)(hydroxyphosphinoyl)oxy)hexanoic acid], the inhibition at 0.5 µM at carboxypeptidase B was more than 90%.

Take `NCCCCC(OP(=O)(O)C(CCCN)NC(=O)CCc1ccccc1)C(=O)O` [Example 40, (S)-6-Amino-2-((4-amino-1-(3-phenylpropanoylamino)butyl)(hydroxyphosphinoyl)oxy)hexanoic acid]: the inhibition at 0.5 µM on carboxypeptidase B amounted to 30%.

Turning to `NCCCC[C@H](OP(=O)(O)C1(NC(=O)CCc2ccccc2)CCCC1)C(=O)O` [Example 20, (S)-6-Amino-2-((1-(3-phenylpropanoylamino)cyclopentyl)(hydroxyphosphinoyl)oxy)hexanoic acid], the inhibition at 0.5 µM on carboxypeptidase B was more than 90%.

Consider `NCCCCC(OP(=O)(O)C(NC(=O)CCc1ccccc1)C1CC1)C(=O)O` [Example 6, (S)-6-Amino-2-((1-cyclopropyl(3-phenylpropanoylamino)methyl)(hydroxyphosphinoyl)oxy)hexanoic acid], for which, at carboxypeptidase B, the inhibition at 0.5 µM is more than 90%.
